Here are results for nine compounds from patent publication US20110165076A1, “NOVEL [F-18]- LABELLED L-GLUTAMIC ACID AND L-GLUTAMINE DERIVATIVES (I), USE THEREOF AND METHOD FOR THEIR PRODUCTION” (BAYER SCHERING PHARMA AKTIENGESELLSCHAFT, priority 2008, published 2011).

Each structure is given as a SMILES string.

Data set [1] relates to A549 tumours. Briefly: Organ distribution experiment in mice bearing A549 tumours. The class given is in vivo. To be noted: for % dose/g adrenals / % dose/g blood / % dose/g bone / % dose/g brain / % dose/g fat / % dose/g heart / % dose/g intestine / % dose/g kidney / % dose/g liver / % dose/g lung / % dose/g muscle / % dose/g ovary / % dose/g pancreas / % dose/g skin / % dose/g spleen / % dose/g stomach / % dose/g tail / % dose/g thyroid / % dose/g tumour / % dose/g uterus: i.v. 250 kBq.

Data set [2] relates to A549 and H460 tumour cells. Nature of the data set: Cell uptake of F-18-labelled glutamic acid derivative in tumour cells. The note with it: for cellular uptake (FIG. 2): after 30 min.
Description: Following labelling with F-18, (2S,4S)-2-amino-4-(3-[F-18]fluoropropyl)pentanedioic acid was examined in cell experiments with A549 and H460 tumour cells (both human non-small-cell bronchial carcinoma cell lines).
For data set [3], the system named is H460 tumour. Briefly: PET in rats bearing H460 tumours. To be noted: 80 min after i.v. 18 MBq, 20 min acquisition. The data set is classed as in vivo.
Data set [4] concerns A549 tumour. Briefly: PET/CT imaging in mice bearing A549 tumours. The class given is in vivo. To be noted: 60 min after i.v. 10 MBq, 20 min acquisition.
Data set [5] deals with A549 cells. Nature of the data set: Competition cell experiment: uptake of tracer 4R/S-[F-18]F-L-glutamic acid in presence of competitor. The data set is classed as cell-based, human. To be noted: competitor 1 mM; for % Tracer uptake: A549 cells, 10 min incubation with 0.250 MBq 4R/S-[F-18]F-L-Glu in PBS buffer; for inhibition of tracer uptake (competition): tracer 4R/S-[F-18]F-L-glutamic acid. The protocol: The uptake of the glutamic acid derivatives according to the invention into tumour cells was investigated in cell experiments. Here, the uptake of a radiolabelled glutamic acid derivative (4R/S—[F-18]F-L-glutamic acid) was examined in the presence of the compounds according to the invention and control susbtances (competition experiments). The compounds according to the invention were employed in excess (1 mM) over 4R/S—[F-18]F-L-glutamic acid (tracer).

Turning to `N[C@@H](C[C@H](CCC[18F])C(=O)O)C(=O)O`, in data set [1] (0.25 h), the “% dose/g adrenals” value amounted to 0.94 % dose/g, the “% dose/g blood” value was 0.72 % dose/g, the “% dose/g bone” value was 0.44 % dose/g and the “% dose/g brain” value stood at 0.09 % dose/g. Besides, in data set [1] (0.25 h), the “% dose/g fat” value was determined as 0.31 % dose/g, the “% dose/g heart” value amounted to 0.42 % dose/g, the “% dose/g intestine” value is 1.27 % dose/g and the “% dose/g kidney” value is 14.38 % dose/g. Besides, in data set [1] (0.25 h), the “% dose/g liver” value was 0.55 % dose/g, the “% dose/g lung” value was 1.35 % dose/g, the “% dose/g muscle” value is recorded as 0.17 % dose/g and the “% dose/g ovary” value was found to be 1.82 % dose/g. Also, in data set [1] (0.25 h), the “% dose/g skin” value is 1.71 % dose/g, the “% dose/g spleen” value came to 2.87 % dose/g, the “% dose/g stomach” value stood at 3.25 % dose/g and the “% dose/g tail” value is reported as 2.74 % dose/g. In data set [1] (0.25 h), the “% dose/g thyroid” value was 1.17 % dose/g and the “% dose/g uterus” value is 1.30 % dose/g. Moreover, in data set [1] (0.5 h), the “% dose/g adrenals” value worked out at 0.78 % dose/g, the “% dose/g blood” value was found to be 0.35 % dose/g, the “% dose/g bone” value came out at 0.37 % dose/g and the “% dose/g brain” value stood at 0.10 % dose/g. Moreover, in data set [1] (0.5 h), the “% dose/g fat” value worked out at 0.08 % dose/g, the “% dose/g heart” value was 0.20 % dose/g, the “% dose/g intestine” value is on record as 0.90 % dose/g and the “% dose/g kidney” value turned out to be 6.44 % dose/g. In addition, in data set [1] (0.5 h), the “% dose/g liver” value is 0.46 % dose/g, the “% dose/g lung” value is reported as 1.08 % dose/g, the “% dose/g muscle” value was 0.09 % dose/g and the “% dose/g ovary” value amounted to 1.13 % dose/g. In data set [1] (0.5 h), the “% dose/g skin” value was 2.26 % dose/g, the “% dose/g spleen” value worked out at 1.76 % dose/g, the “% dose/g stomach” value is reported as 2.64 % dose/g and the “% dose/g tail” value is listed as 3.45 % dose/g. Further, in data set [1] (0.5 h), the “% dose/g thyroid” value amounted to 1.31 % dose/g and the “% dose/g uterus” value is 1.27 % dose/g. Besides, in data set [1] (1.0 h), the “% dose/g adrenals” value worked out at 0.27 % dose/g, the “% dose/g blood” value worked out at 0.13 % dose/g, the “% dose/g bone” value was determined as 0.20 % dose/g and the “% dose/g brain” value was found to be 0.06 % dose/g. Moreover, in data set [1] (1.0 h), the “% dose/g fat” value is 0.04 % dose/g, the “% dose/g heart” value amounted to 0.08 % dose/g, the “% dose/g intestine” value was 0.52 % dose/g and the “% dose/g kidney” value is reported as 2.01 % dose/g. Further, in data set [1] (1.0 h), the “% dose/g liver” value came to 0.21 % dose/g, the “% dose/g lung” value stood at 0.50 % dose/g, the “% dose/g muscle” value is recorded as 0.05 % dose/g and the “% dose/g ovary” value is 0.94 % dose/g. For the same compound, in data set [1] (1.0 h), the “% dose/g skin” value is reported as 1.80 % dose/g, the “% dose/g spleen” value stood at 1.02 % dose/g, the “% dose/g stomach” value is on record as 0.96 % dose/g and the “% dose/g tail” value was 1.19 % dose/g. For the same compound, in data set [1] (1.0 h), the “% dose/g thyroid” value stood at 0.77 % dose/g and the “% dose/g uterus” value is 0.93 % dose/g. In addition, in data set [1] (2.00 h), the “% dose/g adrenals” value is recorded as 0.20 % dose/g, the “% dose/g blood” value amounted to 0.07 % dose/g, the “% dose/g bone” value is listed as 0.20 % dose/g and the “% dose/g brain” value was 0.05 % dose/g. Also, in data set [1] (2.00 h), the “% dose/g fat” value is 0.09 % dose/g, the “% dose/g heart” value is 0.05 % dose/g, the “% dose/g intestine” value is given as 0.32 % dose/g and the “% dose/g kidney” value is 0.80 % dose/g. Moreover, in data set [1] (2.00 h), the “% dose/g liver” value was 0.11 % dose/g, the “% dose/g lung” value is 0.29 % dose/g, the “% dose/g muscle” value is on record as 0.03 % dose/g and the “% dose/g ovary” value was 0.28 % dose/g. In data set [1] (2.00 h), the “% dose/g skin” value was 1.01 % dose/g, the “% dose/g spleen” value is listed as 0.53 % dose/g, the “% dose/g stomach” value was 0.39 % dose/g and the “% dose/g tail” value is 1.69 % dose/g. For the same compound, in data set [1] (2.00 h), the “% dose/g thyroid” value is 0.42 % dose/g and the “% dose/g uterus” value amounted to 0.37 % dose/g. The “uptake into the bones” value in data set [1] (bones, at all points in time) is recorded as less than 0.5 % ID/g. In data set [1] (kidneys, after 0.25 h), this compound yielded an uptake in kidneys of 14.4 % ID/g. Also, the activity in kidneys in data set [1] (kidneys, after 1 h) is given as 2 % ID/g. Further, in data set [1] (pancreas, 0.25 h), the “% dose/g pancreas” value amounted to 13.64 % dose/g. Also, the “% dose/g pancreas” value in data set [1] (pancreas, 0.5 h) is listed as 8.51 % dose/g. Also, the “% dose/g pancreas” value in data set [1] (pancreas, 1.0 h) turned out to be 3.99 % dose/g. Also, in data set [1] (pancreas, 2.00 h), the “% dose/g pancreas” value is reported as 1.35 % dose/g. The uptake in pancreas in data set [1] (pancreas, after 0.25 h) amounted to 13.6 % ID/g. This compound yielded an activity in pancreas in data set [1] (pancreas, after 1 h) of 4 % ID/g. In data set [1] (tumour, 0.25 h), the “% dose/g tumour” value is on record as 2.42 % dose/g. Further, the “injected dose per g in the tumour” value in data set [1] (tumour, 0.25 h after injection) is given as 2.4 % ID/g. For the same compound, the “% dose/g tumour” value in data set [1] (tumour, 0.5 h) came out at 1.82 % dose/g. Also, in data set [1] (tumour, 1.0 h), the “% dose/g tumour” value is listed as 1.58 % dose/g. In data set [1] (tumour, 2.00 h), the “% dose/g tumour” value is on record as 0.97 % dose/g. The same compound registered a tumour uptake in data set [1] (tumour, after 1 h) of 1.6 % ID/g. In data set [2], the “cellular uptake (FIG. 2)” value was 840 000 cpm/100 000 cells. The cellular uptake in data set [2] (after 30 min of incubation, A549 and H460 tumour cells) is reported as 899 000 cpm per 100 000 cells. In data set [2] (after 30 minutes of incubation), the “accumulation in tumour cells compared to [F-18]FDG” value is “accumulates to a greater degree”. Moreover, the “uptake into the H460 tumour (PET image analysis)” value in data set [3] is reported as “high uptake”. In addition, in data set [4], the “uptake into the A549 tumour (PET/CT image analysis)” value is listed as “high uptake”.
Turning to `N[C@@H](C[C@H](CCCF)C(=O)O)C(=O)O` [4S-(3-fluoropropyl)-L-Glu, (2S,4S)-2-Amino-4-(3-fluoropropyl)pentanedioic acid], in data set [5], the “% Tracer uptake” value was 5.4% and the “inhibition of tracer uptake (competition)” value (“inhibition of tracer uptake” for short) was greater than 94%.
As for `N[C@@H](C[C@@H](O)C(=O)O)C(=O)O` [(4R)-hydroxy-L-Glu], in data set [5], the “% Tracer uptake” value worked out at 29.6% and the “inhibition of tracer uptake” value is on record as 70%.
For `C[C@H](C[C@H](N)C(=O)O)C(=O)O` [(4R)-methyl-L-Glu], in that order: 33.5% and 64%.
With `NC(CC(F)C(=O)O)C(=O)O` [(4R/S)-fluoro-D/L-Glu], the “% Tracer uptake” value in data set [5] came out at 16.3%.
For the compound `N[C@@H](C[C@H](O)C(=O)O)C(=O)O` [(4S)-hydroxy-L-Glu], in data set [5], the “% Tracer uptake” value stood at 13.2% and the “inhibition of tracer uptake” value was determined as 87%.
With `C[C@@H](C[C@H](N)C(=O)O)C(=O)O` [(4S)-methyl-L-Glu], in data set [5], the “% Tracer uptake” value amounted to 7.7% and the “inhibition of tracer uptake” value worked out at 92%.
The corresponding values for `N[C@@H](CCC(=O)O)C(=O)O` [L-Glu, L-configured glutamic acid] are 12.6% and 87%.
Regarding `OC[C@H]1OC(O)[C@H]([18F])[C@@H](O)[C@@H]1O` (stereo partly shown) [[F-18]FDG, [^18F]-2-Fluorodeoxyglucose, reference compound], the “cellular uptake (FIG. 2)” value in data set [2] is on record as 770 000 cpm/100 000 cells.
